Measurements from the supplement of paper PMC6045584.
± gives the standard deviation of the averaged measurements.

What follows are test systems tested with COc1cc2c(cc1O)CC[C@@H]1[C@@H]2CC[C@]2(C)[C@@H](O)CC[C@@H]12 [2-METHOXYESTRADIOL] (assay: surviving fraction relative to DMSO-only wells; higher = less growth inhibition). Details: 0.5 nM; exposure time: 5 days.
Outline: (§1)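 At 250–500 cells per well in 384-well plates, log-phase tumour cell lines were seeded and, 24 hours on, exposed continuously for five days to inhibitors at 0.5, 1, 5, 10, 50, 100, 500 and 1000 nM. Viability readout was CellTiter-Glo luminescence, reported as surviving fraction normalised to the median of DMSO-only wells.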

HMLE3 BREAST and HS578T BREAST are within error of each other in surviving fraction: 0.913 ± 0.033 for the first, 0.859 ± 0.075 for the second.

Going from HMT3552 BREAST to CCK81 LARGE INTESTINE, the surviving fraction falls from 1.06 ± 0.034 to 0.764 ± 0.17.

Compared with HCC38 BREAST, HS57T BREAST is lower in surviving fraction: 1.28 ± 0.069 for the first, 0.919 ± 0.034 for the second.

G292 BONE and HCC70 BREAST are within error of each other in surviving fraction: 0.988 ± 0.035 for the first, 0.978 ± 0.05 for the second.

Same assay, conditions: 1 nM; exposure time: 5 days

HMLE3 BREAST and HS578T BREAST are within error of each other in surviving fraction: 0.964 ± 0.037 for the first, 0.947 ± 0.024 for the second.

Going from HMT3552 BREAST to CCK81 LARGE INTESTINE, the surviving fraction falls from 1.04 ± 0.09 to 0.801 ± 0.13.

First: HCC38 BREAST
Second: HS57T BREAST
The surviving fraction of the first is higher: 1.28 ± 0.15 for the first, 0.879 ± 0.078 for the second.

First: G292 BONE
Second: HCC70 BREAST
The surviving fraction of the first is lower: 0.956 ± 0.026 for the first, 1.06 ± 0.064 for the second.

Same assay, conditions: 5 nM; exposure time: 5 days

HMLE3 BREAST and HS578T BREAST are within error of each other in surviving fraction: 0.991 ± 0.059 for the first, 0.946 ± 0.13 for the second.

Going from HMT3552 BREAST to CCK81 LARGE INTESTINE, the surviving fraction falls from 1.08 ± 0.013 to 0.773 ± 0.027.

HCC38 BREAST and HS57T BREAST are within error of each other in surviving fraction: 1.12 ± 0.26 for the first, 0.95 ± 0.074 for the second.

G292 BONE and HCC70 BREAST are within error of each other in surviving fraction: 1.04 ± 0.035 for the first, 1.03 ± 0.062 for the second.

Same assay, conditions: 10 nM; exposure time: 5 days

Compared with HMLE3 BREAST, HS578T BREAST is lower in surviving fraction: 1.05 ± 0.031 for the first, 0.917 ± 0.046 for the second.

Going from HMT3552 BREAST to CCK81 LARGE INTESTINE, the surviving fraction falls from 0.993 ± 0.015 to 0.752 ± 0.059.

Going from HCC38 BREAST to HS57T BREAST, the surviving fraction falls from 1.21 ± 0.18 to 0.965 ± 0.041.

Going from G292 BONE to HCC70 BREAST, the surviving fraction rises from 0.994 ± 0.049 to 1.07 ± 0.016.

Same assay, conditions: 50 nM; exposure time: 5 days

HMLE3 BREAST and HS578T BREAST are within error of each other in surviving fraction: 0.987 ± 0.068 for the first, 1.05 ± 0.23 for the second.

Going from HMT3552 BREAST to CCK81 LARGE INTESTINE, the surviving fraction falls from 1.11 ± 0.029 to 0.776 ± 0.076.

First: HCC38 BREAST
Second: HS57T BREAST
The surviving fraction of the first is higher: 1.35 ± 0.15 for the first, 0.936 ± 0.044 for the second.

G292 BONE and HCC70 BREAST are within error of each other in surviving fraction: 0.982 ± 0.061 for the first, 1.03 ± 0.14 for the second.

Same assay, conditions: 100 nM; exposure time: 5 days

First: HMLE3 BREAST
Second: HS578T BREAST
The surviving fraction of the first is lower: 0.887 ± 0.059 for the first, 1.16 ± 0.096 for the second.

Compared with HMT3552 BREAST, CCK81 LARGE INTESTINE is lower in surviving fraction: 1.17 ± 0.066 for the first, 0.779 ± 0.03 for the second.

HCC38 BREAST and HS57T BREAST are within error of each other in surviving fraction: 1.02 ± 0.36 for the first, 0.901 ± 0.054 for the second.

G292 BONE and HCC70 BREAST are within error of each other in surviving fraction: 0.919 ± 0.029 for the first, 1.01 ± 0.1 for the second.

Same assay, conditions: 500 nM; exposure time: 5 days

Going from HMLE3 BREAST to HS578T BREAST, the surviving fraction falls from 0.937 ± 0.064 to 0.499 ± 0.08.

Going from HMT3552 BREAST to CCK81 LARGE INTESTINE, the surviving fraction rises from 0.343 ± 0.025 to 0.574 ± 0.076.

First: HCC38 BREAST
Second: HS57T BREAST
The surviving fraction of the first is higher: 0.76 ± 0.074 for the first, 0.326 ± 0.017 for the second.

Compared with G292 BONE, HCC70 BREAST is higher in surviving fraction: 0.39 ± 0.013 for the first, 0.629 ± 0.044 for the second.

Same assay, conditions: 1000 nM; exposure time: 5 days

First: HMLE3 BREAST
Second: HS578T BREAST
The surviving fraction of the first is higher: 0.602 ± 0.035 for the first, 0.188 ± 0.0064 for the second.

First: HMT3552 BREAST
Second: CCK81 LARGE INTESTINE
The surviving fraction of the first is lower: 0.126 ± 0.008 for the first, 0.249 ± 0.02 for the second.

Going from HCC38 BREAST to HS57T BREAST, the surviving fraction falls from 0.349 ± 0.028 to 0.0817 ± 0.0051.

G292 BONE and HCC70 BREAST are within error of each other in surviving fraction: 0.234 ± 0.017 for the first, 0.212 ± 0.043 for the second.

Each test system was assayed with Nc1ncn([C@H]2C[C@H](O)[C@@H](CO)O2)c(=O)n1 [DECITABINE] in the same assay as above. Details: 0.5 nM; exposure time: 5 days.
Outline: as §1

Going from HMLE3 BREAST to HS578T BREAST, the surviving fraction falls from 1.1 ± 0.049 to 0.882 ± 0.16.

Compared with HMT3552 BREAST, CCK81 LARGE INTESTINE is lower in surviving fraction: 1.06 ± 0.029 for the first, 0.759 ± 0.099 for the second.

Compared with HCC38 BREAST, HS57T BREAST is lower in surviving fraction: 1.37 ± 0.092 for the first, 0.976 ± 0.049 for the second.

G292 BONE and HCC70 BREAST are within error of each other in surviving fraction: 0.958 ± 0.057 for the first, 1.07 ± 0.12 for the second.

Same assay, conditions: 1 nM; exposure time: 5 days

Going from HMLE3 BREAST to HS578T BREAST, the surviving fraction falls from 1.03 ± 0.082 to 0.838 ± 0.018.

Compared with HMT3552 BREAST, CCK81 LARGE INTESTINE is lower in surviving fraction: 1.024 ± 0.01 for the first, 0.761 ± 0.034 for the second.

HCC38 BREAST and HS57T BREAST are within error of each other in surviving fraction: 1.14 ± 0.13 for the first, 0.99 ± 0.026 for the second.

G292 BONE and HCC70 BREAST are within error of each other in surviving fraction: 0.953 ± 0.026 for the first, 0.991 ± 0.14 for the second.

Same assay, conditions: 5 nM; exposure time: 5 days

Going from HMLE3 BREAST to HS578T BREAST, the surviving fraction falls from 1.14 ± 0.03 to 0.812 ± 0.079.

Going from HMT3552 BREAST to CCK81 LARGE INTESTINE, the surviving fraction falls from 1.09 ± 0.05 to 0.578 ± 0.11.

HCC38 BREAST and HS57T BREAST are within error of each other in surviving fraction: 1.13 ± 0.098 for the first, 1.06 ± 0.027 for the second.

Going from G292 BONE to HCC70 BREAST, the surviving fraction rises from 0.924 ± 0.037 to 1.1 ± 0.05.

Same assay, conditions: 10 nM; exposure time: 5 days

Compared with HMLE3 BREAST, HS578T BREAST is lower in surviving fraction: 1.14 ± 0.058 for the first, 0.837 ± 0.077 for the second.

First: HMT3552 BREAST
Second: CCK81 LARGE INTESTINE
The surviving fraction of the first is higher: 1.02 ± 0.057 for the first, 0.707 ± 0.12 for the second.

HCC38 BREAST and HS57T BREAST are within error of each other in surviving fraction: 0.937 ± 0.044 for the first, 0.972 ± 0.022 for the second.

G292 BONE and HCC70 BREAST are within error of each other in surviving fraction: 0.922 ± 0.025 for the first, 1.02 ± 0.092 for the second.

Same assay, conditions: 50 nM; exposure time: 5 days

HMLE3 BREAST and HS578T BREAST are within error of each other in surviving fraction: 0.95 ± 0.12 for the first, 0.98 ± 0.071 for the second.

Going from HMT3552 BREAST to CCK81 LARGE INTESTINE, the surviving fraction falls from 1.27 ± 0.029 to 0.367 ± 0.058.

First: HCC38 BREAST
Second: HS57T BREAST
The surviving fraction of the first is lower: 0.781 ± 0.019 for the first, 0.923 ± 0.086 for the second.

First: G292 BONE
Second: HCC70 BREAST
The surviving fraction of the first is lower: 0.711 ± 0.0099 for the first, 0.967 ± 0.024 for the second.

Same assay, conditions: 100 nM; exposure time: 5 days

HMLE3 BREAST and HS578T BREAST are within error of each other in surviving fraction: 0.922 ± 0.051 for the first, 0.943 ± 0.2 for the second.

Compared with HMT3552 BREAST, CCK81 LARGE INTESTINE is lower in surviving fraction: 1.21 ± 0.037 for the first, 0.348 ± 0.035 for the second.

Going from HCC38 BREAST to HS57T BREAST, the surviving fraction rises from 0.656 ± 0.027 to 0.904 ± 0.091.

Compared with G292 BONE, HCC70 BREAST is higher in surviving fraction: 0.678 ± 0.043 for the first, 0.956 ± 0.087 for the second.

Same assay, conditions: 500 nM; exposure time: 5 days

First: HMLE3 BREAST
Second: HS578T BREAST
The surviving fraction of the first is lower: 0.605 ± 0.055 for the first, 0.905 ± 0.08 for the second.

Compared with HMT3552 BREAST, CCK81 LARGE INTESTINE is lower in surviving fraction: 1.18 ± 0.06 for the first, 0.308 ± 0.035 for the second.

Compared with HCC38 BREAST, HS57T BREAST is higher in surviving fraction: 0.441 ± 0.0081 for the first, 0.767 ± 0.045 for the second.

First: G292 BONE
Second: HCC70 BREAST
The surviving fraction of the first is lower: 0.571 ± 0.039 for the first, 0.844 ± 0.026 for the second.

Same assay, conditions: 1000 nM; exposure time: 5 days

Going from HMLE3 BREAST to HS578T BREAST, the surviving fraction rises from 0.551 ± 0.054 to 1.02 ± 0.064.

Compared with HMT3552 BREAST, CCK81 LARGE INTESTINE is lower in surviving fraction: 1.14 ± 0.028 for the first, 0.286 ± 0.094 for the second.

Compared with HCC38 BREAST, HS57T BREAST is higher in surviving fraction: 0.409 ± 0.064 for the first, 0.696 ± 0.078 for the second.

First: G292 BONE
Second: HCC70 BREAST
The surviving fraction of the first is lower: 0.543 ± 0.026 for the first, 0.679 ± 0.076 for the second.
